The record followed here is patent US10316017B2, “COT modulators and methods of use thereof” (Gilead Sciences, Inc., priority 2015, dated 2019).

pEC50, pIC50: −log10 of the molar value. Like-named read-outs stand apart in the source and are kept apart here.

For assay [1], the target named is T1, human Cot catalytic domain (30-397 amino acids) (Homo sapiens, UniProt P41279).
T1 construct: Purified recombinant human Cot catalytic domain (30-397 amino acids) was purchased from Cama Biosciences; purchased Cama Biosciences (so in the source)
The assay is described as follows: High Throughput Cot Biochemical Assay (KinEASE TR-FRET). The conditions noted are these: read-out: IC50 HTRF. The procedure, abridged:
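First, purified human Cot (aa 30-397) at 5 nM phosphorylates an XL665-labeled STK3 peptide (1 μM) at 400 μM ATP, pH 7.0, 0.1% DMSO. Then a europium-conjugated phospho-specific antibody binds the product, giving the TR-FRET signal.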
Background: Time-resolved FRET reads energy transfer from a long-lived donor to a nearby acceptor.

Assay [2] deals with TNFα production in LPS-stimulated human monocytes. Put plainly: Cot Monocyte TNFα Cell Based Assay. Conditions: Homo sapiens, Monocyte, read-out: EC50 TNF. The essentials: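 5,000 cells/well; cmpd 1 h, 37 °C, 0.5% DMSO final; LPS 50 pg/ml, 4 h, 37 °C; media TNFα by HTRF sandwich (cryptate/XL665), RT overnight; % control vs unstimulated/stimulated wells.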
The mark [3] stands for this setting: Cot KinEASE TR-FRET (HTRF) biochemical assay, 400 μM ATP.
Setting [4] is: TNFα in LPS-stimulated human monocytes.
[5] abbreviates: Cot KinEASE TR-FRET, 400 μM ATP.
Setting [6] is: LPS-stimulated human monocytes, TNFα TR-FRET.
Where [7] appears, read: Cot biochemical HTRF (KinEASE TR-FRET) assay.

T1 sequence (P41279 30-397): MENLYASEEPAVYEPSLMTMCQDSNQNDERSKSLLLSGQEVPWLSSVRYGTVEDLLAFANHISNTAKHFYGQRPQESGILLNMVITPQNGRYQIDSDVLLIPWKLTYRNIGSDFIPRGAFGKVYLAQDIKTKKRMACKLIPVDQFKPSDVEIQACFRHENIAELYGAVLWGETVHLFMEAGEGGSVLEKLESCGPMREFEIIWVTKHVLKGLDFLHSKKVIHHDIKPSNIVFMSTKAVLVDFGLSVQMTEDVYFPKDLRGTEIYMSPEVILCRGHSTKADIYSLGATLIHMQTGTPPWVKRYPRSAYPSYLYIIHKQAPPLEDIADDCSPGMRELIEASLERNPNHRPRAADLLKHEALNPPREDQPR

The pIC50 is the negative decadic logarithm of the IC50, by convention in mol/L. Usually pEC50 stands for the negative decadic logarithm of the EC50, by convention in mol/L. As to `[2H][C@](Nc1cc(Cl)c2ncc(C#N)c(Nc3cnc(F)c(F)c3)c2c1)(c1ccc(F)cc1)c1c[nH]nn1` [Example 352, (S)-8-chloro-4-((5,6-difluoropyridin-3-yl)amino)-6-(((4-fluorophenyl) (1H-1,2,3-triazol-4-yl)methyl-d)amino) quinoline-3-carbonitrile], the negative logarithm of the IC50 (pIC50) in assay [1] (setting [3]) was 7.68. The pEC50 in assay [2] (setting [4]) was 5.89.
For the compound `Cc1c(-c2cn[nH]c2)cccc1[C@H](Nc1cc(C#N)c2ncc(C#N)c(NCC(C)(C)C)c2c1)c1cn(C2(C(F)(F)F)CC2)nn1` [Example 1133, (S)-6-(((2-methyl-3-(1H-pyrazol-4-yl)phenyl)(1-(1-(trifluoromethyl)cyclopropyl)-1H-1,2,3-triazol-4-yl)methyl)amino)-4-(neopentylamino)quinoline-3,8-dicarbonitrile], the pIC50 in assay [1] (setting [5]) was 8.40. Moreover, in assay [2] (setting [6]), the negative logarithm of the EC50 (pEC50) was 7.57.
Regarding `[2H][C@](Nc1cc(Cl)c2ncc(C#N)c(N[C@@H]3CCC[C@@H](O)C3)c2c1)(c1ccc(F)cc1)c1cn(C2CC2)nn1` [Example 316, 8-chloro-6-(((S)-(1-cyclopropyl-1H-1,2,3-triazol-4-yl)(4-fluorophenyl)methyl-d)amino)-4-(((1R,3R)-3-hydroxycyclohexyl)amino) quinoline-3-carbonitrile], the pIC50 in assay [1] (setting [3]) is 5.74. Further, the pEC50 in assay [2] (setting [4]) was 5.44.
The corresponding values for `N#Cc1cnc2c(Cl)cc(N[C@@H](c3ccc(F)cc3)c3c[nH]nn3)cc2c1NCc1nccs1` [Example 402, (S)-8-chloro-6-(((4-fluorophenyl)(1H-1,2,3-triazol-4-yl)methyl)amino)-4-((thiazol-2-ylmethyl)amino)quinoline-3-carbonitrile] are 6.45 and 5.44.
On to `[2H][C@](Nc1cc(Cl)c2ncc(C#N)c(Nc3cccc(Cl)c3OC(F)(F)F)c2c1)(c1ccc(F)cc1)c1cn(C2CC2)nn1` [Example 966, (S)-8-chloro-4-((3-chloro-2-(trifluoromethoxy)phenyl)amino)-6-(((1-cyclopropyl-1H-1,2,3-triazol-4-yl)(4-fluorophenyl)methyl-d)amino)quinoline-3-carbonitrile], for which the pIC50 in assay [1] (setting [5]) is 7.07. Also, the pEC50 in assay [2] (setting [6]) was no more than 6.00.
For `CC1CC(Nc2c(C#N)cnc3c(Cl)cc(N[C@@H](c4ccccc4)c4cn(C5CCN(C(C)(C)C)CC5)nn4)cc23)CC(C)O1` (stereo partly drawn) [Example 509, 6-(((S)-(1-(1-(tert-butyl)piperidin-4-yl)-1H-1,2,3-triazol-4-yl)(phenyl)methyl)amino)-8-chloro-4-((2,6-dimethyltetrahydro-2H-pyran-4-yl)amino) quinoline-3-carbonitrile], the negative-log IC50 (pIC50) in assay [1] (setting [7]) was 6.69. The pEC50 in assay [2] (setting [4]) was 5.52.
Take `[2H][C@@](Nc1cc(Cl)c2ncc(C#N)c(NC3CC4CCC3CC4)c2c1)(c1ccc(F)cc1)c1cn(C2CC2)nn1` (stereo partly drawn) [Example 277, 4-(((1s,4s)-bicyclo[2.2.2]octan-2-yl)amino)-8-chloro-6-(((S)-(1-cyclopropyl-1H-1,2,3-triazol-4-yl)(4-fluorophenyl)methyl-d)amino)quinoline-3-carbonitrile]: in assay [1] (setting [3]), the pIC50 was 7.49. Moreover, the pEC50 in assay [2] (setting [4]) was 6.07.
`CC(C)[C@@H](Nc1c(C#N)cnc2c(Cl)cc(N[C@@H](c3ccccc3)c3cn(C4CCN(C(C)(C)C)CC4)nn3)cc12)c1ccccc1` [Example 553, 6-(((S)-(1-(1-(tert-butyl)piperidin-4-yl)-1H-1,2,3-triazol-4-yl)(phenyl)methyl)amino)-8-chloro-4-(((R)-2-methyl-1-phenylpropyl)amino)quinoline-3-carbonitrile]: the pIC50 in assay [1] (setting [7]) was 8.00. Besides, the pEC50 in assay [2] (setting [4]) was 6.37.
The corresponding values for `CC(C)(C)CNc1c(C#N)cnc2c(Cl)cc(N[C@@H](c3ccccc3)c3cn(C4CCN(C(C)(C)C)CC4)nn3)cc12` [Example 543, (S)-6-(((1-(1-(tert-butyl)piperidin-4-yl)-1H-1,2,3-triazol-4-yl)(phenyl)methyl)amino)-8-chloro-4-(neopentylamino)quinoline-3-carbonitrile] are 8.15 and 7.29.
As to `CC(C)(C)CNc1c(C#N)cnc2c(C#N)cc(N[C@H](c3cn(C4(C#N)CC4)nn3)c3ccccc3Cl)cc12` [Example 956, (S)-6-(((2-chlorophenyl)(1-(1-cyanocyclopropyl)-1H-1,2,3-triazol-4-yl)methyl)amino)-4-(neopentylamino)quinoline-3,8-dicarbonitrile], the pIC50 in assay [1] (setting [5]) is 8.30. The pEC50 in assay [2] (setting [6]) was 7.21.
On to `CC(C)(C)N1CCC(n2cc([C@@H](Nc3cc(Cl)c4ncc(C#N)c(Nc5c(F)cc(F)cc5F)c4c3)c3ccccc3)nn2)CC1` [Example 473, (S)-6-(((1-(1-(tert-butyl)piperidin-4-yl)-1H-1,2,3-triazol-4-yl)(phenyl)methyl)amino)-8-chloro-4-((2,4,6-trifluorophenyl)amino) quinoline-3-carbonitrile], for which the pIC50 in assay [1] (setting [7]) is 7.23. The pEC50 in assay [2] (setting [4]) is 6.11.
The corresponding values for `N#Cc1cnc2c(Cl)cc(N[C@@H](c3ccc(F)cc3)c3c[nH]nn3)cc2c1NCc1cccs1` [Example 418, (S)-8-chloro-6-(((4-fluorophenyl)(1H-1,2,3-triazol-4-yl)methyl)amino)-4-((thiophen-2-ylmethyl)amino)quinoline-3-carbonitrile] are 6.44 and 5.38.
As to `[2H][C@](Nc1cc(-c2cccnc2)c2ncc(C#N)c(NCC(C)(C)C)c2c1)(c1ccc(F)cc1)c1cn(C2CC2)nn1` [Example 170, (S)-6-(((1-cyclopropyl-1H-1,2,3-triazol-4-yl)(4-fluorophenyl)methyl-d)amino)-4-(neopentylamino)-8-(pyridin-3-yl)quinoline-3-carbonitrile], in assay [1] (setting [3]), the pIC50 is 7.32. Further, the pEC50 in assay [2] (setting [4]) was 6.25.
`Cc1c([C@H](Nc2cc(Cl)c3ncc(C#N)c(NCC(C)(C)C)c3c2)c2cn(C3(C(F)(F)F)CC3)nn2)cccc1-n1cnnc1` [Example 1071, (S)-8-chloro-6-(((2-methyl-3-(4H-1,2,4-triazol-4-yl)phenyl)(1-(1-(trifluoromethyl)cyclopropyl)-1H-1,2,3-triazol-4-yl)methyl)amino)-4-(neopentylamino)quinoline-3-carbonitrile]: the pIC50 in assay [1] (setting [5]) is 8.52. Moreover, the pEC50 in assay [2] (setting [6]) was 6.67.
Turning to `C[C@@H](Nc1c(C#N)cnc2c(Cl)cc(N[C@@H](c3ccccc3)c3c[nH]nn3)cc12)c1ccccc1` [Example 656, 8-chloro-6-(((S)-phenyl(1H-1,2,3-triazol-4-yl)methyl)amino)-4-(((R)-1-phenylethyl)amino) quinoline-3-carbonitrile], the pIC50 in assay [1] (setting [7]) was 7.41. The pEC50 in assay [2] (setting [4]) was 5.74.
For the compound `CN(C)CCn1cc([C@@H](Nc2cc(Cl)c3ncc(C#N)c(Nc4ccc(F)c(Cl)c4)c3c2)c2ccccc2)nn1` [Example 793, (S)-8-chloro-4-((3-chloro-4-fluorophenyl)amino)-6-(((1-(2-(dimethylamino)ethyl)-1H-1,2,3-triazol-4-yl)(phenyl)methyl)amino) quinoline-3-carbonitrile], the pIC50 in assay [1] (setting [7]) is 8.15. Also, the pEC50 in assay [2] (setting [4]) is 6.68.
